# Test results from patent publication US20090076067A1, “PHARMACEUTICAL COMPOSITION COMPRISING AZARHODACYANINE COMPOUND AS ACTIVE INGREDIENT” (priority 2005, published 2009).
# Read-outs that look alike come from different tables or passages of the source.
# Legend:
# [1] = test system: Trypanosoma cruzi (Tulahuen C2C4 strain); assay: American trypanosoma protozoa proliferation inhibition screening test; assay type: cell-based; settings: Tulahuen C2C4 strain in rat L6 cells, 96 hours, CPRG/Nonidet
# Procedure: In this experiment, amastigote and trypomastigote of Trypanosoma cruzi (Tulahuen C2C4 strain) infected to rat L6 cells were used. The medium used in the experiment was prepared as follows: to RPMI 1640 medium containing L6 cells, L-glutamine (200 mM) and fetal bovine serum was added to achieve concentration of 1% and 10%, respectively. The culture was conducted under CO2 concentration 5% and temperature 37° C.
# Either the compound of the invention or a positive control (benznidazole) was dissolved into DMSO to prepare test solution having predefined concentration. To each well in a 96-well culture plate, medium containing 5×10^3 protozoa was added and precultured for 48 hours. After replacing the medium, either the test solution containing compound of the invention in predefined concentration or DMSO without compound was added. The test solution was duplicated.
# The plate was cultured in an incubator for 96 hours, and the proliferation inhibition activity was examined. The activity was determined as follows. To each well, 50 μL CPRG/Nonidet was added, then left for 2 to 6 hours. Then the culture plate was mounted on an absorption microplate reader to determine absorption at 540 nm. The trypanosoma infection rate of the sample containing the test compound and that of the control sample was calculated.
# (§1) Using the protozoa infection rate thus obtained, the proliferation inhibition rate was calculated according to the following equation to determine 50% proliferation inhibition concentration (EC50).
# (§2) Proliferation inhibition rate(%)={1−(b−a)/(c−a)}×100
# (§3) a: initial infection rate b: infection rate of the test compound solution c: infection rate of the control
# [2] = test system: Plasmodium Falciparum k1 strain; assay: Chloroquine-resistant tropical malaria protozoa proliferation inhibition screening test; assay type: cell-based; settings: for Selective toxicity: EC50 rat L6 cells / EC50 Chloroquine-resistant malaria protozoa; for EC50: Plasmodium falciparum
# Procedure: In this experiment, Plasmodium Falciparum k1 strain protozoa were used. The medium used in the experiment was filter-sterilized RPMI-1640 medium. To the medium human serum was added to achieve 5% concentration. The protozoa was cultured under condition of O2 concentration 3%, CO2 concentration 4%, N2 concentration 93%, and temperature 37° C.
# The cultured malaria infected red blood cells were collected by centrifugation, diluted with non-infected red blood cells, to achieve initial infection rate 0.15%. The hematocrit was 2.5%.
# To each well in a 96-well culture plate, 200 μL malaria infected culture was added, and either test solution containing test compound at predefined concentration or DMSO having no test compound was added. Each test solution was prepared in duplicate. After 48 hours culture under 37° C., hypoxanthine labeled with radioactive tritium (^3H) of 0.5 μCi was added to each well. After culturing under same condition for 24 hours, the product was collected on a glass fiber filter and washed. The intensity of radiation was measured by Beta plate liquid scintillation counter (Wallac Inc.), to determine malaria protozoa infection rate in test compound samples and control samples.
# Using the malaria protozoa infection rate, the proliferation inhibition rate was calculated according to the following equation to determine 50% proliferation inhibition concentration (EC50).
# as §2
# (§4) a: initial infection rate b: infection rate of test compound solution c: infection rate of the control
# [3] = Rat L6 cell proliferation inhibition test; assay type: cell-based; settings: read-out: EC50 cytotoxicity L6
# Procedure: (§5) Rat-derived L6 cells (rat skeletal myoblast cell) were used for this test. […] The sample was cultured under CO2 concentration 5% and temperature 37° C. Either the composition of the invention or control was dissolved into DMSO, to prepare test solutions having predefined concentration.
# (§6) The samples were precultured until logarithmic growth phase was reached. Then the culture was transferred to each well in a 96-well culture plate, and either test solution containing test compound at predefined concentration or DSMO without compound was added. The test solution was duplicated.
# (§7) The plate was cultured in an incubator for 72 hours, to examine proliferation inhibition activity. The activity was examined as follows. Alamar Blue water solution 10 μL was added to each well, and culture was continued for 2 hours. Next, the culture plate was mounted on a fluorescence microplate reader (Spectramax Gemeni XS; Molecular Devices Corporation, U.S.), and irradiated with excitation wavelength 536 nm to determine fluorescence at 588 nm. The survival rate of L6 cells in the test solution sample and control sample was calculated.
# (§8) Proliferation inhibition rate(%)={(C−A)/(B−A)}×100
# (§9) A: Initial cell count B: Cell count in control after 3 days C: Cell count in test solution after 3 days
# [4] = test system: Rat-derived L6 cells (rat skeletal myoblast cell); assay: Rat L6 cell proliferation inhibition test; assay type: cell-based; settings: Alamar Blue
# Procedure: as §5, §6, §7, §8, §9
# [5] = test system: Trypanosoma brucei rhodensiense (STIB 900 strain); assay: African trypanosoma protozoa proliferation inhibition screening test; assay type: cell-based; settings: for EC50 Trypanosoma brucei rhod.: STIB 900 bloodstream form, 72 hours, Alamar blue
# Procedure: In this experiment, bloodstream form trypomastigote of Trypanosoma brucei rhodensiense (STIB 900 strain) was used. The medium used in the experiment was prepared as follows: to filter-sterilized MEM medium, 25 mM N-2-hydroxyethylpiperazine-2-ethane sulfonate (HEPES), 1 g/L glucose, 1% MEM nonessential amino acid, 0.2 mM 2-mercaptoethanol, 2 mM pyruvic calcium salt, 0.1 mM hypoxanthine, and 15% heat-treated horse serum were added. The protozoa was cultured under atmosphere of CO2 concentration 5% and temperature 37° C.
# Either the compound of the invention or a positive control (melarsoprol) was dissolved into dimethylsulfoxide (DMSO) to prepare test solution having predefined concentration. To each well in a 96-well culture plate, medium containing 8×10^3 protozoa, and either test solution containing the test compound at predefined concentration or DMSO without compound was added. Then medium was added to achieve 100 μL. The test solution was duplicated.
# The culture plate was cultured in an incubator for 72 hours, and the proliferation inhibition activity was examined. The activity was determined as follows. To each well, 10 μL Alamar blue water solution was added, then the plate was again cultured for 2 hours. Then the culture plate was mounted on a fluorescence microplate reader (Spectramax Gemeni XS; Molecular Devices Corporation, U.S.), and irradiated with 536 nm excitation wavelength to determine fluorescence at 588 nm. The trypanosoma infection rate of the sample containing the test composition and that of the control sample was calculated.
# as §1, §2, §3
# [6] = test system: Plasmodium berghei NK 65 strain; assay: animal or person; assay type: in vivo; settings: for Survival days (mean survival days, treatment group minus control group) / Recovery Rate (suppression): dose 25 mg/kg/d intraperitoneally, 4 days; for Recovery Rate (suppression): P. berghei infected ICR mice
# From the text: For a test to evaluate therapeutic effect of the compound, 4-day suppressive test which is commonly used for in vivo test to evaluate activity of anti-malaria compound was used. In this experiment, rodent malaria protozoa (Plasmodium berghei NK 65 strain) were used. The infected blood was collected from 5-weeks age (SPF) ICR strain male mouse which were infected intraperitoneally and successively cultured. From the caudal vein of the infected mouse, blood was collected to calculate infection rate. After confirming that infection rate was adequately elevated (10% to 20% infection), the malaria infected blood was collected from the heart of the mouse. The infection rate and count of the red blood cells (cells/mL) were calculated. The infected red blood cell was diluted with PBS buffer to achieve […] protozoa per 0.2 mL dose. The infected cells were injected to the caudal vein of uninfected mouse (ICR strain, male, 5-weeks age) to cause infection. Five mice were made into one group, and the test compound was administered in predefined concentration. From 2 hours after infection, the compound was administered every 24 hours for straight 4 days.
# The compound of the invention to be used in this test was dissolved in saline (Otsuka Pharmaceutical Co., Ltd.) to obtain test solution of predefined concentration. When the compound was not dissolved in saline, it was dissolved in SSV (saline containing 0.5% sodium=carboxymethyl cellulose, 0.5% benzyl alcohol, 0.4% Tween 80) to prepare test solution. For the control group (non-treatment group), only saline (Otsuka) was administered. Positive controls S-1 to S-5 were dissolved in saline (Otsuka) or SSV in predetermined concentration to prepare test solution. When the compound was not dissolved in saline, it was dissolved in SSV. After measuring weight of each mouse, the dose for each mouse was calculated to achieve 5.0 to 40 mg concentration for weight1 kg.
# Five mice were made into one group, and the test compound was administered intraperitoneally at predefined concentration. From 2 hours after infection, the compound was administered every 24 hours for straight 4 days. Subsequent to the 24 hours after last treatment, blood was collected from the tail of the mouse to prepare thin layer smear in order to count malaria protozoa infection in the treatment group and the control group under microscope. The mice showing maximum value and minimum value were excluded from the average calculation (average was calculated for three mice), to determine malaria protozoa infection rate (Parasitemia).
# Using malaria protozoa infection rate thus calculated, recovery rate obtained from the test compound (suppression) was determined.
# Recovery rate: suppression(%)=(b−a)/b×100 a: Protozoa infection rate in the treatment group b: Protozoa infection rate in the control group Mean survival days: MSD(day)=c−d c: Average days from the initial treatment (date of malaria infection) to the date of death for the treatment group (5 mice) d: Average days from the date of malaria infection to the date of death for the non-treatment (control) group (5 mice) […]
# Tables 5 to 7 illustrate the recovery rate (%) and survival days (day) of malaria infected mice treated with intraperitoneal injection of the test compound and the control compound at predefined concentration. The meaning of symbols in the table is as follows.
# [7] = test system: Leishmania donovani (MHOM/ET/67/L82 strain); assay: Leishmania protozoa proliferation inhibition screening test; assay type: cell-based; settings: amastigote, 72 hours, Alamar blue
# Procedure: In this experiment, Leishmania donovani (MHOM/ET/67/L82 strain) was used. The protozoa were successively cultured in Syrian Golden hamsters to obtain amastigote. The medium used in the experiment was SM medium having heat-treated fetal bovine serum 10% added, and pH prepared to 5.4. The culture was conducted under CO2 concentration 5% and temperature 37° C.
# Either the compound of the invention or a positive control (miltefosine) was dissolved into DMSO to prepare test solution having predefined concentration. To each well of a 96-well culture plate, medium containing predetermined number of protozoa was added and the culture was pre-treated. The concentration of amastigote was determined by CASY cell analyze system (Scharfe GMBH Co., Germany). Subsequently, either test solution containing compound of the invention in predefined concentration or DMSO without compound was added. The test solution was duplicated.
# The plate was cultured in an incubator for 72 hours, and the proliferation inhibition activity was examined. The activity was determined as follows. To each well, 10 μL Alamar blue aqueous solution was added, then cultured again for 2 hours. Then the culture plate was mounted on a fluorescence microplate reader (Spectramax Gemeni XS; Molecular Devices Corporation, U.S), and irradiated 536 nm excitation wavelength to determine […] at 588 nm. The leishmania infection rate of the sample containing the test compound and that of the control sample was calculated.
# as §1, §2, §4
# [8] = chloroquine-resistant K1 strain, 3H-hypoxanthine uptake, read-out: EC50 P. falciparum K1
# [9] = L6 cells (rat skeletal myoblasts), Table 1, Alamar Blue
# [10] = chloroquine-resistant K1 strain, 3H-hypoxanthine uptake
compound,measurement,setting,value
"O=C(Cn1ccnc1[N+](=O)[O-])NCc1ccccc1 [Benznidazole, reference compound]",EC50,"[1]; Trypanosoma cruzi, read-out: EC50 Trypanosoma cruzi",0.87 mg/L
"CCN(CC)CCCC(C)Nc1ccnc2cc(Cl)ccc12 (stereo not shown) [Chloroquine, reference compound]",Selective toxicity,[2],1300
same,EC50,"[2]; K1, read-out: EC50 P. falciparum K1",0.047 mg/L
same,EC50 at 72 h,"[3]; Table 1, rat L6 cells, Alamar Blue",60 mg/L
CCN1C(=O)/C(=c2\nc3c(s2)=CC=CN3C)S/C1=N\c1cccc[n+]1C.[Cl-] [Compound A-22],Selective toxicity,[2],>782
same,EC50,[2]; [8],0.0115 mg/L
same,EC50 at 72 h,[3]; [9],> 90 mg/L
CCn1c(=O)/c(=c2\nc3c(o2)=CC=CN3C)s/c1=C1\S/C(=N\c2scc[n+]2C)N(Cc2ccccc2)C1=O [Compound B-22],EC50 P. falciparum K1,[2]; [10],0.005 mg/L
same,EC50 cytotoxicity L6,"[4]; Table 1, 72 hours",>90 mg/L
same,EC50 Trypanosoma brucei rhod.,[5],0.068 mg/L
same,"Survival days (mean survival days, treatment group minus control group)",[6],9.0 days
same,Recovery Rate (suppression),[6],72.4%
CCN1C(=O)/C(=c2/s/c(=C3/C=CC=CN3C)c(=O)n2CC)S/C1=N\c1sc2cc(F)ccc2[n+]1C [Compound B-32],EC50 P. falciparum K1,[2]; [10],0.0162 mg/L
same,EC50 cytotoxicity L6,"[4]; Table 1, 72 hours",15.88 mg/L
same,EC50 cytotoxicity L6,"[4]; Table 2, 72 hours",15.88 mg/L
same,EC50 cytotoxicity L6,"[4]; Table 4, 72 hours",15.88 mg/L
same,EC50 Trypanosoma brucei rhod.,[5],0.1585 mg/L
same,EC50 Leishmania donovani,[7],0.2195 mg/L
same,"Survival days (mean survival days, treatment group minus control group)",[6],4.8 days
same,Recovery Rate (suppression),[6],79.5%
CCn1c(=O)/c(=C2\SCCN2C)s/c1=C1\S/C(=N\c2scc[n+]2C)N(C(C)C)C1=O [Compound B-35],Selective toxicity,[2],3630
same,EC50,[2]; [8],0.006 mg/L
same,EC50 at 72 h,[3]; [9],21.8 mg/L
same,inhibition in vivo at 25 mg/kg/day,"[6]; Plasmodium berghei, ip, 96 h, read-out: Recovery Rate (suppression)",63.5%
same,"Survival days (mean survival days, treatment group minus control group)",[6],3.5 days
C=CCN1C(=O)/C(=c2/s/c(=C3/SCCN3C)c(=O)n2CC)S/C1=N\c1sc2cc(Cl)ccc2[n+]1C [Compound B-39],EC50 cytotoxicity L6,"[4]; Table 2, 72 hours",3.72 mg/L
same,EC50 cytotoxicity L6,"[4]; Table 3, 72 hours",3.72 mg/L
same,EC50 cytotoxicity L6,"[4]; Table 4, 72 hours",3.72 mg/L
same,EC50 Trypanosoma brucei rhod.,[5],0.141 mg/L
same,EC50 Trypanosoma cruzi,[1],0.141 mg/L
same,EC50 Leishmania donovani,[7],0.049 mg/L
same,"Survival days (mean survival days, treatment group minus control group)",[6],4.5 days
same,Recovery Rate (suppression),[6],77.7%
"Nc1nc(N)nc(Nc2ccc([As]3SCC(CO)S3)cc2)n1 (stereo not shown) [Melarsoprol, reference compound]",EC50 at 72 h,"[3]; Table 2, rat L6 cells, Alamar Blue",3.1 mg/L
same,Selective toxicity,[5]; EC50 rat L6 cells / EC50 African trypanosoma protozoa,1300
same,EC50,"[5]; Trypanosoma brucei, STIB900, 72 h, read-out: EC50 Trypanosoma brucei rhod.",0.0024 mg/L
"CCCCCCCCCCCCCCCCOP(=O)([O-])OCC[N+](C)(C)C [Miltefosine, reference compound]",EC50,"[7]; Leishmania donovani, read-out: EC50 Leishmania donovani",0.11 mg/L
